Measurements from patent US20240270762A1, “PENICILLIN-BINDING PROTEIN INHIBITORS” (priority 2021, published 2024).
Converted amounts (≈) assume the structure as drawn.

Columns and labels:
N. gonorrhoeae CDC-0197 = assay: Liquid broth MIC in Fastidious broth; details: Neisseria gonorrhoeae, CDC0197, read-out: Minimum Inhibitory Concentration (MIC), N. gonorrhoeae CDC-0197
N. gonorrhoeae WHO X = assay: Liquid broth MIC in Fastidious broth; details: Neisseria gonorrhoeae, read-out: Minimum Inhibitory Concentration (MIC), N. gonorrhoeae WHO X
P. aeruginosa CDC-0095 = assay: microbe, parasite or virus in culture; type: cell-based; details: Pseudomonas aeruginosa, CDC0095, read-out: Minimum inhibitory concentration, P. aeruginosa CDC-0095
P. aeruginosa CDC-0110 = assay: microbe, parasite or virus in culture; type: cell-based; details: Pseudomonas aeruginosa, CDC0110, read-out: Minimum inhibitory concentration, P. aeruginosa CDC-0110
[1] = tested on: N. gonorrhoeae ATCC 49226; assay: Liquid broth MIC in Fastidious broth; details: Neisseria gonorrhoeae, ATCC49226, read-out: Minimum Inhibitory Concentration (MIC), N. gonorrhoeae ATCC 49226
Procedure: Additional antibacterial testing of the series was performed in 8 reference strains of N. gonorrhoeae (ATCC 49226, FA1090, MS 11, WHO G, WHO L, WHO M, WHO K, WHO X, WHO Z, WHO Q, CDC-0197). ATCC 49226, FA1090, MS11, WHO G, WHO L, and WHO M produce wild type or wild-type like PBP2. WHO K, WHO X, WHO Z, WHO Q, and CDC-0197 produce mosaic PBP2. Liquid broth-based assays were used for antibacterial testing of PBP inhibitors in Neisseria gonorrhoeae. Briefly, cryo-preserved bacterial cultures of clinical strains were streaked for isolation on Chocolate Agar (72 g/L (2×) GC Agar Base (BD #228950) and 2% (2×) Hemoglobin was autoclaved at 121° C. for 20 minutes to sterilize. Once cooled to ˜50° C. the 2×GC Agar Base and 2× Hemoglobin solutions are combined and 1% IsoVitaleX Enrichment (BD #211876) was added to the solution). Strains were incubated at 36° C. and 5% CO2 to allow growth of colonies, 24 hours before inoculum preparation. 2-fold serial dilutions of test compounds were conducted in a 96 well plate with a final volume of 75 μL per well at 2-fold the final desired concentration in Fastidious broth (Remel #R07664). For preparation of assay inoculum, a direct suspension was prepared by aseptically swabbing 10-15 colonies from agar plates into culture tubes containing 2 mL of fresh sterile saline. After the dilution plates were set up, direct suspensions were then diluted in a cuvette containing sterile saline and the optical density was measured at 600 nm. Inocula were diluted such that 75 μL of this culture in Fastidious broth results in a starting bacterial concentration of 5×10^5 CFU/mL when added to the dilution plates. The plates were incubated for ˜24 hours at 36° C. and 5% CO2.

A. baumannii CDC-0036 = assay: microbe, parasite or virus in culture; type: cell-based; details: Acinetobacter baumannii, CDC0036, read-out: MIC, A. baumannii CDC-0036
N. gonorrhoeae WHO M = assay: Liquid broth MIC in Fastidious broth; details: Neisseria gonorrhoeae, read-out: Minimum Inhibitory Concentration (MIC), N. gonorrhoeae WHO M
N. gonorrhoeae MS11 = assay: Liquid broth MIC in Fastidious broth; details: Neisseria gonorrhoeae, MS11, read-out: Minimum Inhibitory Concentration (MIC), N. gonorrhoeae MS11
A. baumannii 1258916 = assay: microbe, parasite or virus in culture; type: cell-based, Acinetobacter baumannii; details: Acinetobacter baumannii, 1258916, read-out: MIC, A. baumannii 1258916
A. baumannii ATCC 19606 = assay: microbe, parasite or virus in culture; type: cell-based; details: Acinetobacter baumannii, ATCC19606, read-out: MIC, A. baumannii ATCC 19606
A. baumannii CDC-0083 = assay: microbe, parasite or virus in culture; type: cell-based; details: Acinetobacter baumannii, CDC0083, read-out: MIC, A. baumannii CDC-0083
A. baumannii CDC-0033 = assay: microbe, parasite or virus in culture; type: cell-based; details: Acinetobacter baumannii, CDC0033, read-out: MIC, A. baumannii CDC-0033
P. aeruginosa ATCC 35151 = assay: microbe, parasite or virus in culture; type: cell-based; details: Pseudomonas aeruginosa, ATCC35151, read-out: Minimum inhibitory concentration, P. aeruginosa ATCC 35151
[2] = molecular target: T1, PBP3 from Pseudomonas aeruginosa (PAO1) (Pseudomonas aeruginosa, UniProt G3XD46); assay: Bocillin-FL fluorescence polarization competition binding, P. aeruginosa PBP3; details: Binding affinity to P. aeruginosa PBP3; fluorescence polarization competition binding assay using Bocillin-FL; read-out: P. aeruginosa PBP3 Potency
T1 construct: made in house
T1 sequence (G3XD46 whole entry): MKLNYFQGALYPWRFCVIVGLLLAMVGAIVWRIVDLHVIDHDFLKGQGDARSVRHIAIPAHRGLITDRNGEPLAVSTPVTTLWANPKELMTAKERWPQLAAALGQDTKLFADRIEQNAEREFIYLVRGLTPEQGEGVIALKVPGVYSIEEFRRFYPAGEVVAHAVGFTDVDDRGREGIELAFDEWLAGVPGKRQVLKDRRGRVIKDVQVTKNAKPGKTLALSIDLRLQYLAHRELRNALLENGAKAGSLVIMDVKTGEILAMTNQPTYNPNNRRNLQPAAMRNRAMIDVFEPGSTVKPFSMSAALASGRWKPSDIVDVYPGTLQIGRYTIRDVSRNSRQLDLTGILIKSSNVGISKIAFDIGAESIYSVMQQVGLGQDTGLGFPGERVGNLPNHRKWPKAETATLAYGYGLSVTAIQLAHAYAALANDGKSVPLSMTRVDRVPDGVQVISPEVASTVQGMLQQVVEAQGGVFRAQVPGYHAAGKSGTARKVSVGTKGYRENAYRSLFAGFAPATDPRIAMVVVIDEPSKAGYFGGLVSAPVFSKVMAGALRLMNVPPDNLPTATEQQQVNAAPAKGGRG
Procedure, shortened: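 Purified PBP was preincubated with inhibitor (E. coli PBP3 1.5 μM, 30 min; P. aeruginosa PBP3 0.75 μM, A. baumannii PBP3 0.2 μM and PBP1a 1 μM, 15 min), then Bocillin-FL (0.1 μM; 0.05 μM for PBP1a) added and FP read up to 60 min. EC50 = 50% loss of bound probe.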

A. baumannii ATCC 17978 = assay: microbe, parasite or virus in culture; type: cell-based; details: Acinetobacter baumannii, ATCC17978, read-out: MIC, A. baumannii ATCC 17978

Structure (SMILES) | MIC (N. gonorrhoeae CDC-0197) | MIC (N. gonorrhoeae WHO X) | MIC (P. aeruginosa CDC-0095) | MIC (P. aeruginosa CDC-0110) | MIC [1] | MIC (A. baumannii CDC-0036) | MIC (N. gonorrhoeae WHO M) | MIC (N. gonorrhoeae MS11) | MIC (A. baumannii 1258916) | MIC (A. baumannii ATCC 19606) | MIC (A. baumannii CDC-0083) | MIC (A. baumannii CDC-0033) | MIC (P. aeruginosa ATCC 35151) | IC50 [2] | MIC (A. baumannii ATCC 17978)
O=C(NCCN1CCN(C(=O)NC(C(=O)N[C@H]2Cc3ccc(F)c(C(=O)O)c3OB2O)c2cc(F)c(O)c(O)c2Cl)C(=O)C1=O)Nc1ccc(O)cc1 (stereo partly drawn) [Example 219, (3R)-3-(2-(2-chloro-5-fluoro-3,4-dihydroxyphenyl)-2-(4-(2-(3-(4-hydroxyphenyl)ureido)ethyl)-2,3-dioxopiperazine-1-carboxamido)acetamido)-7-fluoro-2-hydroxy-3,4-dihydro-2H-benzo[e][1,2]oxaborinine-8-carboxylic acid] | > 64 µg/mL | > 64 µg/mL | 8 to 16 µg/mL (≈ 10.5 to 21 µM) | < 1 µg/mL | 16 to 32 µg/mL (≈ 21 to 42.1 µM) | 8 to 16 µg/mL (≈ 10.5 to 21 µM) | 4 to 8 µg/mL (≈ 5.26 to 10.5 µM) | 16 to 32 µg/mL (≈ 21 to 42.1 µM) | 2 to 4 µg/mL (≈ 2.63 to 5.26 µM) | < 1 µg/mL | 8 to 16 µg/mL (≈ 10.5 to 21 µM) | 8 to 16 µg/mL (≈ 10.5 to 21 µM) | < 1 µg/mL | < 10 µM | < 1 µg/mL
O=C(NCCN1CCN(C(=O)NC(C(=O)N[C@H]2Cc3ccc(F)c(C(=O)O)c3OB2O)c2cc(F)c(O)c(O)c2Cl)C(=O)C1=O)Nc1cccc(O)c1 (stereo partly drawn) [Example 220, (3R)-3-(2-(2-chloro-5-fluoro-3,4-dihydroxyphenyl)-2-(4-(2-(3-(3-hydroxyphenyl)ureido)ethyl)-2,3-dioxopiperazine-1-carboxamido)acetamido)-7-fluoro-2-hydroxy-3,4-dihydro-2H-benzo[e][1,2]oxaborinine-8-carboxylic acid] | > 64 µg/mL | > 64 µg/mL | 8 to 16 µg/mL (≈ 10.5 to 21 µM) | < 1 µg/mL | 16 to 32 µg/mL (≈ 21 to 42.1 µM) | 8 to 16 µg/mL (≈ 10.5 to 21 µM) | 4 to 8 µg/mL (≈ 5.26 to 10.5 µM) | 16 to 32 µg/mL (≈ 21 to 42.1 µM) | 2 to 4 µg/mL (≈ 2.63 to 5.26 µM) | < 1 µg/mL | 8 to 16 µg/mL (≈ 10.5 to 21 µM) | 2 to 4 µg/mL (≈ 2.63 to 5.26 µM) | < 1 µg/mL | < 10 µM | < 1 µg/mL
O=C(NCCN1CCN(C(=O)N[C@@H](C(=O)N[C@H]2Cc3ccc(F)c(C(=O)O)c3OB2O)c2cc(F)c(O)c(O)c2Cl)C(=O)C1=O)Nc1ccncc1 [Example 221, (R)-3-((R)-2-(2-chloro-5-fluoro-3,4-dihydroxyphenyl)-2-(2,3-dioxo-4-(2-(3-(pyridin-4-yl)ureido)ethyl)piperazine-1-carboxamido)acetamido)-7-fluoro-2-hydroxy-3,4-dihydro-2H-benzo[e][1,2]oxaborinine-8-carboxylic acid] | > 64 µg/mL | > 64 µg/mL | 8 to 16 µg/mL (≈ 10.7 to 21.5 µM) | < 1 µg/mL | 16 to 32 µg/mL (≈ 21.5 to 42.9 µM) | 2 to 4 µg/mL (≈ 2.68 to 5.36 µM) | 4 to 8 µg/mL (≈ 5.36 to 10.7 µM) | 16 to 32 µg/mL (≈ 21.5 to 42.9 µM) | 2 to 4 µg/mL (≈ 2.68 to 5.36 µM) | < 1 µg/mL | 32 to 64 µg/mL (≈ 42.9 to 85.8 µM) | 2 to 4 µg/mL (≈ 2.68 to 5.36 µM) | < 1 µg/mL | < 10 µM | < 1 µg/mL
O=C(NCCN1CCN(C(=O)N[C@@H](C(=O)N[C@H]2Cc3ccc(F)c(C(=O)O)c3OB2O)c2cc(F)c(O)c(O)c2Cl)C(=O)C1=O)Nc1cccnc1 [Example 222, (R)-3-((R)-2-(2-chloro-5-fluoro-3,4-dihydroxyphenyl)-2-(2,3-dioxo-4-(2-(3-(pyridin-3-yl)ureido)ethyl)piperazine-1-carboxamido)acetamido)-7-fluoro-2-hydroxy-3,4-dihydro-2H-benzo[e][1,2]oxaborinine-8-carboxylic acid] | > 64 µg/mL | > 64 µg/mL | 8 to 16 µg/mL (≈ 10.7 to 21.5 µM) | < 1 µg/mL | 16 to 32 µg/mL (≈ 21.5 to 42.9 µM) | 2 to 4 µg/mL (≈ 2.68 to 5.36 µM) | 4 to 8 µg/mL (≈ 5.36 to 10.7 µM) | 16 to 32 µg/mL (≈ 21.5 to 42.9 µM) | 2 to 4 µg/mL (≈ 2.68 to 5.36 µM) | < 1 µg/mL | 32 to 64 µg/mL (≈ 42.9 to 85.8 µM) | 2 to 4 µg/mL (≈ 2.68 to 5.36 µM) | < 1 µg/mL | < 10 µM | < 1 µg/mL
CN(CCN1CCN(C(=O)NC(C(=O)N[C@H]2Cc3ccc(F)c(C(=O)O)c3OB2O)c2cc(F)c(O)c(O)c2Cl)C(=O)C1=O)S(=O)(=O)c1ccc(C(N)=O)cc1 (stereo partly drawn) [Example 223, (3R)-3-(2-(4-(2-((4-carbamoyl-N-methylphenyl)sulfonamido)ethyl)-2,3-dioxopiperazine-1-carboxamido)-2-(2-chloro-5-fluoro-3,4-dihydroxyphenyl)acetamido)-7-fluoro-2-hydroxy-3,4-dihydro-2H-benzo[e][1,2]oxaborinine-8-carboxylic acid] | > 64 µg/mL | > 64 µg/mL | 2 to 4 µg/mL (≈ 2.43 to 4.86 µM) | < 1 µg/mL | 16 to 32 µg/mL (≈ 19.4 to 38.9 µM) | 8 to 16 µg/mL (≈ 9.72 to 19.4 µM) | 16 to 32 µg/mL (≈ 19.4 to 38.9 µM) | 16 to 32 µg/mL (≈ 19.4 to 38.9 µM) | 2 to 4 µg/mL (≈ 2.43 to 4.86 µM) | < 1 µg/mL | 2 to 4 µg/mL (≈ 2.43 to 4.86 µM) | 8 to 16 µg/mL (≈ 9.72 to 19.4 µM) | < 1 µg/mL | < 10 µM | < 1 µg/mL
CN(CCN1CCN(C(=O)NC(C(=O)N[C@H]2Cc3ccc(F)c(C(=O)O)c3OB2O)c2cc(F)c(O)c(O)c2Cl)C(=O)C1=O)S(=O)(=O)c1cccc(C(N)=O)c1 (stereo partly drawn) [Example 224, (3R)-3-(2-(4-(2-((3-carbamoyl-N-methylphenyl)sulfonamido)ethyl)-2,3-dioxopiperazine-1-carboxamido)-2-(2-chloro-5-fluoro-3,4-dihydroxyphenyl)acetamido)-7-fluoro-2-hydroxy-3,4-dihydro-2H-benzo[e][1,2]oxaborinine-8-carboxylic acid] | > 64 µg/mL | > 64 µg/mL | 2 to 4 µg/mL (≈ 2.43 to 4.86 µM) | < 1 µg/mL | 16 to 32 µg/mL (≈ 19.4 to 38.9 µM) | 8 to 16 µg/mL (≈ 9.72 to 19.4 µM) | 16 to 32 µg/mL (≈ 19.4 to 38.9 µM) | > 64 µg/mL | 2 to 4 µg/mL (≈ 2.43 to 4.86 µM) | < 1 µg/mL | 2 to 4 µg/mL (≈ 2.43 to 4.86 µM) | 8 to 16 µg/mL (≈ 9.72 to 19.4 µM) | < 1 µg/mL | < 10 µM | < 1 µg/mL
CN(CCN1CCN(C(=O)N[C@@H](C(=O)N[C@H]2Cc3ccc(F)c(C(=O)O)c3OB2O)c2cc(F)c(O)c(O)c2Cl)C(=O)C1=O)Cc1cccc(C(N)=O)c1 [Example 225, (R)-3-((R)-2-(4-(2-((3-carbamoylbenzyl)(methyl)amino)ethyl)-2,3-dioxopiperazine-1-carboxamido)-2-(2-chloro-5-fluoro-3,4-dihydroxyphenyl)acetamido)-7-fluoro-2-hydroxy-3,4-dihydro-2H-benzo[e][1,2]oxaborinine-8-carboxylic acid] | 16 to 32 µg/mL (≈ 20.7 to 41.4 µM) | > 64 µg/mL | 2 to 4 µg/mL (≈ 2.59 to 5.18 µM) | < 1 µg/mL | 16 to 32 µg/mL (≈ 20.7 to 41.4 µM) | 2 to 4 µg/mL (≈ 2.59 to 5.18 µM) | 16 to 32 µg/mL (≈ 20.7 to 41.4 µM) | 16 to 32 µg/mL (≈ 20.7 to 41.4 µM) | < 1 µg/mL | < 1 µg/mL | < 1 µg/mL | 2 to 4 µg/mL (≈ 2.59 to 5.18 µM) | < 1 µg/mL | < 10 µM | < 1 µg/mL
CN(CCN1CCN(C(=O)N[C@@H](C(=O)N[C@H]2Cc3ccc(F)c(C(=O)O)c3OB2O)c2cc(F)c(O)c(O)c2Cl)C(=O)C1=O)Cc1ccc(C(N)=O)cc1 [Example 226, (R)-3-((R)-2-(4-(2-((4-carbamoylbenzyl)(methyl)amino)ethyl)-2,3-dioxopiperazine-1-carboxamido)-2-(2-chloro-5-fluoro-3,4-dihydroxyphenyl)acetamido)-7-fluoro-2-hydroxy-3,4-dihydro-2H-benzo[e][1,2]oxaborinine-8-carboxylic acid] | > 64 µg/mL | > 64 µg/mL | 2 to 4 µg/mL (≈ 2.59 to 5.18 µM) | < 1 µg/mL | 16 to 32 µg/mL (≈ 20.7 to 41.4 µM) | 2 to 4 µg/mL (≈ 2.59 to 5.18 µM) | 16 to 32 µg/mL (≈ 20.7 to 41.4 µM) | 16 to 32 µg/mL (≈ 20.7 to 41.4 µM) | < 1 µg/mL | < 1 µg/mL | < 1 µg/mL | 2 to 4 µg/mL (≈ 2.59 to 5.18 µM) | < 1 µg/mL | < 10 µM | < 1 µg/mL
